For 5 compounds, IC50 results are on record in patent publication US20080306055A1, “Heterocyclic Mchr1 Antagonists And Their Use In Therapy” (ASTRAZENECA AB, priority 2004, published 2008).

One assay addresses T1, recombinant hMCHr1 (Homo sapiens, UniProt Q99705).
T1 construct: purchased Euroscreen
Nature of the assay: MCHr1 functional assay ([35S]GTPγS binding, membranes). The assay is classed as biochemical. Conditions: ED80 concentration of MCH, antagonist mode. How it is done:
Membranes expressing recombinant hMCHr1 ([…] protein; Euroscreen) were prepared in assay buffer (50 mM HEPES, 100 mM NaCl, 5 mM MgCl2, 1 mM EDTA, 200 μM DTT, 20 μM GDP (Sigma) containing 0.1 μg/ml BSA, pH7.4) before assay. The assays were performed using membranes at 6 μg/well in an assay volume of 200 μL and the appropriate concentrations of compounds prepared in DMSO. The reaction was started by addition of 0.056 nM [^35S]GTPγS (Specific activity >1000 Ci/mmol; Amersham) and an ED80 concentration of MCH (determined for each membrane and each MCH batch). Non-specific binding was determined using 20 μM non-radiolabelled GTPγS. Plates were incubated for 45 min at 30° C. Free and bound GTPγS were separated by filtration binding using GF/B filter mats presoaked in wash buffer (50 mM Tris, 5 mM MgCl2, 50 mM NaCl, pH 7.4) using a Micro96 cell harvester (Skatron Instruments) and the filters then dried at 50° C. before counting using a 1450 Microbeta TRILUX (Wallac).
Data are means ±SD for experiments performed in triplicate. IC50 values of antagonists were determined using non-linear regression analysis of concentration response curves using Activity Base. For instance, the following IC50 values were obtained for the compounds of the following examples: […]
Background: Binding of GTPγS marks nucleotide exchange on a G protein.

The target in assay [1] is T2, human Melanin concentrating hormone receptor 1 (hMCHr1) (Homo sapiens, UniProt Q99705).
T2 construct: purchased Euroscreen; host or cells: CHO-K1
T2 sequence (Q99705 whole entry): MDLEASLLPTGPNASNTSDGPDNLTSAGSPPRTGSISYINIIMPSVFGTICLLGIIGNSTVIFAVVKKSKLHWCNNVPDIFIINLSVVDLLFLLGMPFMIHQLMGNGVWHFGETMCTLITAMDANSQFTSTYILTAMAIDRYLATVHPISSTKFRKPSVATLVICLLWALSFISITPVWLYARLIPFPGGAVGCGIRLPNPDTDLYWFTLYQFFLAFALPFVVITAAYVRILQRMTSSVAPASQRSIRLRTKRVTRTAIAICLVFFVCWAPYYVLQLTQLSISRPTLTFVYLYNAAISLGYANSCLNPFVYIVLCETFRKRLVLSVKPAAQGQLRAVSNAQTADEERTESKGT
Nature of the assay: MCH1 receptor radioligand binding (125I-MCH, CHO-K1 membranes). To be noted: 125I-MCH displacement, membranes from CHO-K1 cells expressing hMCHr1; read-out: IC50 in human MCHr1 binding assay. As to the method: MCH1 Receptor Radioligand Binding.
Assays were performed on membranes prepared from CHO-K1 cells expressing the human Melanin concentrating hormone receptor 1 (hMCHr1, 5.45 pmol/mg protein; Euroscreen). Assays were performed in a 96-well plate format in a final reaction volume of 200 μl per well. Each well contained 6 μg of membrane proteins diluted in binding buffer (50 mM Tris, 3 mM MgCl2, 0.05% bovine serum albumin and the radioligand ^125I-MCH (IM344 Amersham) was added to give 10 000 cpm (counts per minute) per well. Each well contained 2 μl of the appropriate concentration of competitive antagonist prepared in DMSO and left to stand at 30° C. for 60 minutes. Non-specific binding was determined as that remaining following incubation with […] MCH (Melanin concentrating hormone, H-1482 Bachem). The reaction was terminated by transfer of the reaction to GF/A filters using a Micro96 Harvester (Skatron Instruments, Norway). Filters were washed with assay buffer. Radioligand retained on the filters was quantified using a 1450 Microbeta TRILUX (Wallac, Finland).
Non-specific binding was subtracted from all values determined. Maximum binding was that determined in the absence of any competitor following subtraction of the value determined for non-specific binding. Binding of compounds at various concentrations was plotted according to the equation
A is the bottom plateau of the curve i.e. the final minimum y value
B is the top of the plateau of the curve i.e. the final maximum y value
C is the x value at the middle of the curve. This represents the log EC50 value when A+B=100
D is, the slope factor. x is the original known x values. y is the original known y values.

In the next assay the target is HERG (Homo sapiens, UniProt Q12809). Put plainly: HERG activity (planar-array-based voltage clamp). To be noted: modified planar-array voltage clamp method. The assay is classed as cell-based. How it is done: HERG testing was performed using a modified version of the method described by Kiss L, Bennett P B, Uebele V N, Koblan K S, Kane S A, Neagle B, Schroeder K. “High throughput ion-channel pharmacology: planar-array-based voltage clamp” Assay Drug Dev Technol. 1, 127-35. (2003).
Chain of HERG (Q12809 whole entry): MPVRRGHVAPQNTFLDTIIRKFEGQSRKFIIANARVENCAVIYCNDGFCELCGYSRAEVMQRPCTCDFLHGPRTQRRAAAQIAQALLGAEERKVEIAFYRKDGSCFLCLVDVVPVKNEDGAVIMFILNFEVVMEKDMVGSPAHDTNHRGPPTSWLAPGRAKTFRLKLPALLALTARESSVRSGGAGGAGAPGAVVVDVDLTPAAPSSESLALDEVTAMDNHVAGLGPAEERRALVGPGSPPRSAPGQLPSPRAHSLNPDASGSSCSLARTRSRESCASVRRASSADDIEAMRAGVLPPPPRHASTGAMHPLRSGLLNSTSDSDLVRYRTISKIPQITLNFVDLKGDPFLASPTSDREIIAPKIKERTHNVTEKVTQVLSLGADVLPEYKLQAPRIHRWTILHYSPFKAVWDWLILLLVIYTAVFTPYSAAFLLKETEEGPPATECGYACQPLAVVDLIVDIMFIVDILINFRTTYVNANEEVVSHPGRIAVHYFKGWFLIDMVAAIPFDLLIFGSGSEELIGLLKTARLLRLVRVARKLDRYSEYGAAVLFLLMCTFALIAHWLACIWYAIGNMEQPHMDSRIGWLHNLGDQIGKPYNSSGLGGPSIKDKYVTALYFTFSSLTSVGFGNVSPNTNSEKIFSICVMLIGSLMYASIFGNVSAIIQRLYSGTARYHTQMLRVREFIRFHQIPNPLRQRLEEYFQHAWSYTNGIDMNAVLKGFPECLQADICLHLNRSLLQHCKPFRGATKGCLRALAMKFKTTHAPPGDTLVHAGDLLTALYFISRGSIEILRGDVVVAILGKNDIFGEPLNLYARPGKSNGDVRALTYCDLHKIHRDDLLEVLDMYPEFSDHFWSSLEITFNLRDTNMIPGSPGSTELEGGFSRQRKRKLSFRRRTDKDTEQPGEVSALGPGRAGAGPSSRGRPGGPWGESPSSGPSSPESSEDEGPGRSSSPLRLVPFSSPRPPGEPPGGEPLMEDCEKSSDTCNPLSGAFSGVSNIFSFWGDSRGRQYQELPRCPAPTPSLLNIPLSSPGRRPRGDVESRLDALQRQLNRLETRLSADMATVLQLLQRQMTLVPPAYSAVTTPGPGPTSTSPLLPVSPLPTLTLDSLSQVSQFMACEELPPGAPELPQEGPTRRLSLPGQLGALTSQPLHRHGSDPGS

T1 sequence (Q99705 whole entry): as the sequence (Q99705 whole entry) above

As for `O=C(NC1CCN(Cc2ccn(-c3ccc(C(F)(F)F)cc3)c2)CC1)C(c1ccccc1)c1ccccc1` [Example 1, 2,2-diphenyl-N-[1-({1-[4-(trifluoromethyl)phenyl]-1H-pyrrol-3-yl}methyl)piperidin-4-yl]acetamide], at recombinant hMCHr1, the concentration for half-maximal inhibition (IC50) amounted to 42 nM.

For the compound `O=C(CC1CCN(Cc2ccn(-c3ccc(C(F)(F)F)cc3)c2)CC1)NCc1ccc(F)c(F)c1` [Example 2, N-(3,4-difluorobenzyl)-2-[1-({1-[4-(trifluoromethyl)phenyl]-1H-pyrrol-3-yl}methyl)piperidin-4-yl]acetamide], the IC50 in assay [1] stood at 12 nM; on recombinant hMCHr1, 112 nM.

As for `O=C(NCCc1ccccc1)C1CCN(Cc2ccn(-c3ccc(C(F)(F)F)cc3)c2)CC1` [Example 3, N-(2-phenylethyl)-1-({1-[4-(trifluoromethyl)phenyl]-1H-pyrrol-3-yl}methyl)piperidine-4-carboxamide], the IC50 in assay [1] turned out to be 14 nM.

For the compound `O=C(Nc1ccc(Cl)cc1Cl)NC1CCN(Cc2ccn(-c3ccc(C(F)(F)F)cc3)c2)CC1` [Example 6, N-(2,4-dichlorophenyl)-N′-[1-({1-[4-(trifluoromethyl)phenyl]-1H-pyrrol-3-yl}methyl)piperidin-4-yl]urea], the IC50 in assay [1] is 72 nM.

In the case of `CC(O)CCNC(=O)NC1CCN(Cc2ccn(-c3ccc(C(F)(F)F)cc3)c2)CC1` (stereo not drawn) [Example 76, N-(3-hydroxybutyl)-N′-[1-({1-[4-(trifluoromethyl)phenyl]-1H-pyrrol-3-yl}methyl)piperidin-4-yl]urea], the half-maximal inhibitory concentration (IC50) against HERG was > 5000 nM.

For orientation: IC50 means the concentration at which inhibition is half-maximal.
